In patent publication US4788206A, “Pentadieneamides” (Hoffmann-La Roche Inc., priority 1987, dated 1988):

Columns and labels:
[1] = system: PAF-Induced Platelet Count Decrease; experiment: PAF Induced Platelet Count Decrease; type: in vivo, guinea pig; conditions: for inhibition in vivo at 3 mg/kg: Cavia porcellus, Platelet, read-out: Percent Inhib. of PAF-Induced Platelet Count Decrease, 3 mg/Kg; for inhibition in vivo at 3 mg/kg / Percent Inhib. of PAF-Induced Platelet Count Decrease, 3 mg/Kg: 3 mg/Kg (route not given)
Description: PAF Induced Platelet Count Decrease
Male Hartley guinea pigs weighing between 500 and 900 grams were fed standard guinea pig chow and tap water ad libitum. PAF was solubilized in ethanol and stored as a 2 mM stock solution at -70° C. The stock solutuion of PAF was diluted to 1 pM in Tris buffer pH 7.4 and 0.1% BSA for all experiments.
(a) Intravenous Procedure
Guinea pigs were anesthetized with urethane (1.6 g/kg, i.p.). A catheter (PE50) was introduced into the right carotid artery for withdrawing blood. A second catheter PE10) was introduced into the jugular vein for injecting drugs and for administering the PAF challenge (75 ng/kg, i.v.). A control blood sample was obtained and platelets were counted in a whole blood platelet analyzer. PAF was then given and blood samples were taken 15, 30, and 60 seconds after the challenge for platelet counts. Fifteen minutes later, selected concentrations of the test compound were solubilized in DMSO and injected intravenously into a group of 4-6 animals. Only one concentration of antagonist was used in each animal group. Fifteen minutes after drug injection, blood smaples were taken before and 15, 30, and 60 sec after the PAF challenge, and analyzed for platelet number.
Animals were anesthetized with sodium pentobarbital (35 mg/kg. i.p.) and the caritoid artery and jugular vein were cannulated as described above. The cannulae were exteriorized at the base of the neck and the animals were allowed to recover. At least 18 hours after surgery, conscious unrestrained guinea pigs were used in the experiment. The animals were challenged two time with PAF (120 ng/kg. i.v.); the first to establish a consistent response to PAF and the second to serve as a control for the PAF challenge. Blood samples were taken before and 15, 30, and 45 seconds after PAF challenge and platelets were counted. Thirty minutes after the control PAF challenge, the animal were orally dosed with either gum acacia or the test compound. Animals were then challenged with PAF at 1, 3, 5, and 24 hours after the administration of the drug.
Data Analysis and Statistics
The % change, i.e., the difference in platelet number before and after PAF challenge was calculated by: [formula]
Statistical significance (p<0.05) of the difference between the mean PAF control and mean drug treated activity was determined with paried Students's t-test.

[2] = molecular target: T1, PAF Binding, dog platelets (Canis lupus familiaris, UniProt A0A8I3NSH0); experiment: PAF Binding Assay (inhibition of 3H-PAF binding to washed dog platelets); conditions: dog platelets, 3H-PAF, 10 minutes at room temperature; read-out: Inhib of PAF Binding IC50
T1 construct: Washed platelets were prepared by resuspending the platelet pellet once with PBS containing 1 mM EDTA; from tissue; host or cells: washed platelets from dog blood
T1 sequence (A0A8I3NSH0 1-343): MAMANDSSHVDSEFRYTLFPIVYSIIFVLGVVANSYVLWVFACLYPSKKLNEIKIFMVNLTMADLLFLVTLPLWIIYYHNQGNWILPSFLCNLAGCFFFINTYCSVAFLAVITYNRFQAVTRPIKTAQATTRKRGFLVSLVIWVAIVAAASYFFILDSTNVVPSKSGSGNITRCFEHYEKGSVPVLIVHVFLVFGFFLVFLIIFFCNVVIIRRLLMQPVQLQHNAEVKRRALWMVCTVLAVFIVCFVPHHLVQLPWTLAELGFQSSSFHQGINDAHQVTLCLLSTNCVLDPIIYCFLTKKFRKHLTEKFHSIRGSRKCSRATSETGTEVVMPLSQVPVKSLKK
In short: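 Washed dog platelets (2×10^7 per tube, in 0.1% BSA-PBS) incubated 10 min at room temperature with 3H-PAF and test analogs. Bound ligand separated by 1 min centrifugation through silicone oil; platelet pellet radioactivity counted by liquid scintillation.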

[3] = system: PAF-Induced Bronchoconstriction; experiment: PAF Induced Bronchoconstriction Assay; type: in vivo, guinea pig; conditions: for inhibition in vivo at 50 mg/kg: Cavia porcellus, po, 50 mg/Kg p.o., 2-hour pretreatment, read-out: Percent Inhib. of PAF-Induced Bronchoconstriction, 50 mg/Kg p.o.; for Percent Inhib. of PAF-Induced Bronchoconstriction, mg/Kg i.v.: i.v. (dose not given), 1 minute pretreatment, PAF 1.0 μg/kg i.v.
In short: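 Male Hartley guinea pigs, urethane-anesthetized (2 g/kg i.p.), ventilated, with succinylcholine 1.2 mg/kg i.v. and propranolol 0.1 mg/kg i.v. pretreatment. Compound given i.v. 1 min or by oral gavage 2 h before i.v. PAF challenge at 1.0 μg/kg. Peak tracheal pressure rise over baseline compared with control mean gives % inhibition.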

SMILES	IC50 [2]	Percent Inhib. of PAF-Induced Platelet Count Decrease, 30 mg/Kg p.o. [1]	inhibition in vivo at 3 mg/kg [1]	inhibition in vivo at 50 mg/kg [3]	Percent Inhib. of PAF-Induced Bronchoconstriction, mg/Kg i.v. [3]	Percent Inhib. of PAF-Induced Platelet Count Decrease, 3 mg/Kg (1 min) ([1]; 3 mg/Kg, (1 min))	Percent Inhib. of PAF-Induced Platelet Count Decrease, 3 mg/Kg [1]
O=C(/C=C/C=C(c1cccc(F)c1)c1cccc(F)c1)NCCCCc1cccnc1 [(E)-5,5-bis(3-Fluorophenyl)-N-[4-(3-pyridinyl)butyl]-2,4-pentadienamide]	20 nM	58%	61%	37 ± 11%	72 ± 16%		
COc1cccc(C(=C/C=C/C(=O)N[C@H](C)CCCc2cccnc2)c2cccc(OC)c2)c1 [[R-(E)]-5,5-bis (3-methoxyphenyl)-N-[1-methyl-4-(3-pyridinyl)butyl]-2,4-pentadienamide]	35 nM		31%	87 ± 8%	87 ± 4%		
C[C@H](CCCc1cccnc1)NC(=O)/C=C/C=C(c1ccc(F)cc1)c1ccc(F)cc1 [[R-(E)]-5,5-bis (4-fluorophenyl)-N-[1-methyl-4-(3-pyridinyl)butyl]-2,4-pentadienamide]			11%	53 ± 11%	70 ± 9%		
O=C(/C=C/C=C(c1ccccc1C(F)(F)F)c1ccccc1C(F)(F)F)NCCCCc1cccnc1 [(E)-5,5-bis[2-(Trifluoromethyl)phenyl]-N-[4-(3-pyridinyl)butyl]-2,4-pentadienamide]	80 nM		0%		6 ± 10%		
C[C@@H](CCCc1cccnc1)NC(=O)/C=C/C=C(c1cccc(F)c1)c1cccc(F)c1 [[S-(E)]-5,5-bis(3-fluorophenyl)-N-[1-methyl-4-(3-pyridinyl)butyl]-2,4-pentadienamide]			19%	46 ± 8%	34 ± 7%		
O=C(/C=C/C=C(c1cccc(Cl)c1)c1cccc(Cl)c1)NCCCCc1cccnc1 [(E)-5,5-bis(3-chlorophenyl)-N-[4-(3-pyridinyl)butyl]-2,4-pentadienamide]			21%	35 ± 7%	76 ± 14%		
COc1ccc(C(=C/C=C/C(=O)N[C@@H](C)CCCc2cccnc2)c2ccc(OC)cc2)cc1 [[S-(E)]-5,5-bis(4-Methoxyphenyl)-N-[1-methyl-4-(3-pyridinyl)butyl]-2,4-pentadienamide]			42%	90 ± 6%	42 ± 13%		
COc1ccc(C(=C/C=C/C(=O)N[C@H](C)CCCc2cccnc2)c2ccc(OC)cc2)cc1 [[R-(E)]-5,5-bis(4-methoxyphenyl)-N-[1-methyl-4-(3-pyridinyl)butyl]-2,4-pentadienamide]		81%	85%	97 ± 2%	87 ± 4%		
COc1cccc(C(=C/C=C/C(=O)N[C@@H](C)CCCc2cccnc2)c2cccc(OC)c2)c1 [[S-(E)]-5,5-bis(3-methoxyphenyl)-N-[1-methyl-4-(3-pyridinyl)butyl]-2,4-pentadienamide]	300 nM		10%	10 ± 5%	36 ± 4%		
O=C(/C=C/C=C(c1cccc(C(F)(F)F)c1)c1cccc(C(F)(F)F)c1)NCCCCc1cccnc1 [(E)-5,5-bis[3-(trifluoromethyl)phenyl]-N-[4-(3-pyridinyl)butyl]-2,4-pentadienamide]	150 nM		83%		inactive		
C[C@H](CCCc1cccnc1)NC(=O)/C=C/C=C(c1cccc(F)c1)c1cccc(F)c1 [[R-(E)]-5,5-bis(3-fluorophenyl)-N-[1-methyl-4-(3-pyridinyl)butyl]-2,4-pentadienamide]			17%	91 ± 5%	73 ± 6%		

Now from value to compound, other results behind:

IC50 [2]	SMILES	Percent Inhib. of PAF-Induced Platelet Count Decrease, 30 mg/Kg p.o. [1]	inhibition in vivo at 3 mg/kg [1]	inhibition in vivo at 50 mg/kg [3]	Percent Inhib. of PAF-Induced Bronchoconstriction, mg/Kg i.v. [3]	Percent Inhib. of PAF-Induced Platelet Count Decrease, 3 mg/Kg (1 min) ([1]; 3 mg/Kg, (1 min))	Percent Inhib. of PAF-Induced Platelet Count Decrease, 3 mg/Kg [1]
20 nM	COc1cccc(/C(=C/C=C/C(=O)NCCCCc2cccnc2)c2ccccc2)c1 [(2E,4E)-5-(3-Methoxyphenyl)-5-phenyl-N-[4-(3-pyridinyl)butyl]-2,4-pentadienamide]		40%	13 ± 18%			
55 nM	O=C(/C=C/C=C(c1ccccc1)c1ccccc1)NCCCCc1cccnc1 [(E)-5,5-Diphenyl-N-[4-(3-pyridinyl)butyl]-2,4-pentadienamide]		14%	12 ± 1%	35 ± 15%		
40 nM	COc1cccc(/C(=C/C=C/C(=O)NCCCCc2cccnc2)c2cccc(F)c2)c1 [(2E,4Z)-5-(3-fluorophenyl)-5-(3-methoxyphenyl)-N-[4-(3-pyridinyl)butyl]-2,4-pentadienamide]			1 ± 8%	90 ± 5%	67%	
25 nM	COc1ccc(C(=C/C=C/C(=O)NCCCCc2cccnc2)c2ccc(OC)cc2)cc1 [(E)-5,5-bis(4-Methoxyphenyl)-N-[4-(3-pyridinyl)butyl]-2,4-pentadienamide]	45%	40%	82 ± 12%	92 ± 3%		
35 nM	COc1cccc(/C(=C\C=C\C(=O)NCCCCc2cccnc2)c2ccccc2)c1 [(2E,4Z)-5-(3-methoxyphenyl)-5-phenyl-N-[4-(3-pyridinyl)butyl]-2,4-pentadienamide]			10 ± 10%			inactive
40 nM	O=C(/C=C/C=C(c1ccc(F)cc1)c1ccc(F)cc1)NCCCCc1cccnc1 [(E)-5,5-bis(4-fluorophenyl)-N-[4-(3-pyridinyl)butyl]-2,4-pentadienamide]		18%	97 ± 1%	91 ± 3%		
2 nM	COc1cccc(C(=C/C=C/C(=O)NCCCCc2cccnc2)c2cccc(OC)c2)c1 [(E)-5,5-bis (3-methoxyphenyl)-N-[4-(3-pyridinyl)butyl]-2,4-pentadienamide]	48%	75%	31 ± 11%	69 ± 7%		
25 nM	COc1cccc(/C(=C\C=C\C(=O)NCCCCc2cccnc2)c2cccc(F)c2)c1 [(2E,4E)-5-(3-fluorophenyl)-5-(3-methoxyphenyl)-N-[4-(3-pyridinyl)butyl]-2,4-pentadienamide]			25 ± 14%	88 ± 4%		inactive
40 nM	CCCCC/C(=C/C=C/C(=O)NCCCCc1cccnc1)c1ccc(OC)cc1 [(2E,4Z)-5-(4-methoxyphenyl)-N-[4-(3-pyridinyl)butyl]-2,4-decadienamide]				68 ± 11%		
70 nM	COc1ccc(/C(=C\C=C\C(=O)N[C@H](C)CCCc2cccnc2)C2CC2)cc1 [[R-(2E,4Z)]-5-cyclopropyl-5-(4-methoxyphenyl)-N-1-methyl-4-(3-pyridinyl)butyl]-2,4-pentadienamide]			63 ± 19%	85 ± 4%		
